The supplement of paper PMC10307832

Tests used:
Assay in all cases: relative viability (nuclei count vs DMSO), 5 days (fraction); higher = more cells survive
[1] = compound: CC[C@@H](C)CNCC(=O)N1CCC2=C([C@@H]1COC3=CC=CC(=C3)C)C=CS2 [RU-SKI 43] + Nc1ncn([C@H]2C[C@H](O)[C@@H](CO)O2)c(=O)n1 [Decitabine] (partner 2 µM)
Method in brief: (§1)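 Each reported value is a median over duplicate plates. It expresses relative viability: treated-well nuclei count divided by vehicle-well nuclei count. Lung cancer cell lines in 1536-well plates were dosed by pin tool a day after seeding, alone with one drug or with a fixed anchor-drug dose plus five library-drug doses (not always all listed) in √10 steps, and nuclei were counted after 5 days.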

[2] = compound: CCc1c2c(nc3ccc(OC(=O)N4CCC(N5CCCCC5)CC4)cc13)-c1cc3c(c(=O)n1C2)COC(=O)[C@]3(O)CC [Irinotecan] + Cc1nc(Nc2ncc(C(=O)Nc3c(C)cccc3Cl)s2)cc(N2CCN(CCO)CC2)n1 [Dasatinib] (partner 0.075 µM)
Method in brief: as §1

[3] = compound: Cn1cc(-c2cnc3ccc4ccc(CS(=O)(=O)NCc5ccccn5)cc4c(=O)c3c2)cn1 [MK-8033] + CC(=O)Nc1cccc(-n2c(=O)n(C3CC3)c(=O)c3c(Nc4ccc(I)cc4F)n(C)c(=O)c(C)c32)c1 [Trametinib] (partner 0.02 µM)
Method in brief: as §1

[4] = compound: Cn1cc(-c2cnc3ccc4ccc(CS(=O)(=O)NCc5ccccn5)cc4c(=O)c3c2)cn1 [MK-8033] + CC(C)C[C@H](NC(=O)[C@H](Cc1ccccc1)NC(=O)c1cnccn1)B(O)O [Bortezomib] (partner 0.002 µM)
Method in brief: as §1

Cell Line	relative viability ([1]; first compound 0.1 µM)	relative viability ([1]; first compound 0.3162 µM)	relative viability ([1]; first compound 1 µM)	relative viability ([1]; first compound 3.162 µM)	relative viability ([1]; first compound 10 µM)	relative viability ([2]; first compound 0.6325 µM)	relative viability ([2]; first compound 2 µM)	relative viability ([2]; first compound 6.325 µM)	relative viability ([2]; first compound 20 µM)	relative viability ([3]; first compound 0.02 µM)	relative viability ([3]; first compound 0.06325 µM)	relative viability ([3]; first compound 0.2 µM)	relative viability ([3]; first compound 0.6325 µM)	relative viability ([3]; first compound 2 µM)	relative viability ([4]; first compound 0.02 µM)	relative viability ([4]; first compound 0.06325 µM)	relative viability ([4]; first compound 0.2 µM)	relative viability ([4]; first compound 0.6325 µM)	relative viability ([4]; first compound 2 µM)
NCI-H1651	0.624	0.593	0.7	0.593	0.589	0.319	0.311	0.281	0.112	0.823	0.846	0.845	0.809	0.861	0.988	0.868	0.968	0.999	1.02
NCI-H1355	0.351	0.378	0.348	0.348	0.354		0.85	0.511	0.272	0.415	0.363	0.393	0.447	0.419	1.25	1.12	1.14	1.21	1.15
NCI-H1563						0.392	0.458	0.44	0.514						0.951	0.823	0.857	0.833	0.838
NCI-H1650	0.315	0.36	0.338	0.509	0.34		0.401	0.304	0.177	0.568	0.637	0.53	0.625	0.54	0.198	0.181	0.197	0.234	0.218
HCC-78	0.676	0.602	0.781	0.667	0.639	0.394	0.384	0.214	0.24	0.611	0.614	0.739	0.325	0.578	0.446	0.38	0.47	0.478	0.557
NCI-H1437	0.591	0.582	0.601	0.56	0.557	0.229	0.534	0.254	0.111	0.483	0.583	0.46	0.607	0.449	0.469	0.444	0.512	0.489	0.419
BEN	0.806	0.692	0.812	0.729	0.78	0.238	0.331	0.199	0.252	1.07	0.943	0.964	1.03	0.991	0.937	0.751	0.578	0.631	0.807
LCLC-103H	0.728	0.762	0.732	0.764	0.72	0.413	0.439	0.324	0.275	0.637	0.705	0.673	0.672	0.696	1.04	0.986	1.18	1.02	1.12
NCI-H1915	0.272	0.257	0.285	0.25	0.255	0.215	0.221	0.132	0.128	0.276	0.319	0.274	0.289	0.306	1	0.911	0.975	1.03	0.952
NCI-H2085	0.509	0.497	0.572	0.603	0.509	0.221	0.23	0.266	0.273	0.542	0.546	0.525	0.554	0.574	0.956	0.941	0.98	1.08	0.963
NCI-H23	0.309	0.319	0.326	0.291	0.335	0.563	0.679	0.274	0.231	0.331	0.349	0.331		0.381	0.959	0.712	0.796	1.03	1.01
EPLC-272H	0.358	0.369	0.324	0.365	0.353	0.146	0.296	0.15	0.265	0.247	0.263	0.29	0.275	0.301	0.932		0.826	1.09	0.91
EBC-1															0.532	0.489	0.597	0.563	0.309
SK-MES-1	0.313	0.385	0.391	0.403	0.389	0.293	0.284	0.22	0.186	0.44	0.478	0.539	0.583	0.534					
A549	0.256	0.263	0.25	0.307	0.234														
NCI-H2126	0.591	0.574	0.523	0.615	0.554		0.55	0.41	0.135	0.542	0.554	0.525	0.585	0.569	1.17	1.11	1.01	1.06	1.07
NCI-H2087	0.324	0.283	0.281	0.247	0.238	0.392	0.535	0.19	0.196	0.213	0.147	0.187	0.214	0.254	0.877	0.77	0.828	0.687	0.829
EMC-BAC-2	0.984	0.965	1.02	0.997	1.03	0.292	0.324	0.215	0.304	0.804	0.776	0.826	0.928	0.902	1	0.947	0.979	1.06	1.06
SW 900	0.422	0.408	0.423	0.428	0.453	0.688	0.707	0.509	0.488	0.762	0.583	0.612	0.936	0.848					
